The results in this text go back to PubChem BioAssay (NCI).

Some test systems named below: HT29 colon; IGROV1 ovarian; M14 melanoma; NCI-H23 lung; NCI-H460 lung; OVCAR-4 ovarian; OVCAR-8 ovarian; PC-3 prostate; RPMI-8226 leukemia; SF-295 CNS; SN12C renal; SNB-19 CNS; SNB-75 CNS; TK-10 renal.
Assay in all cases: NCI tumour cell line growth inhibition, 48 h

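Cultured in 96-well plates, cells were exposed to test compound for 48 hours across five concentrations. The concentration for full growth arrest is given as TGI.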

As for `Cn1c(=O)c2c(ncn2CCSS(=O)(=O)O)n(C)c1=O`, the TGI in the assay on HT29 colon, in the assay on IGROV1 ovarian, with M14 melanoma, in the assay on NCI-H23 lung, in the assay with NCI-H460 lung and in the assay with OVCAR-4 ovarian was above 100 µM in each case. In addition, the TGI with OVCAR-8 ovarian, in the assay on PC-3 prostate, in the assay with RPMI-8226 leukemia, in the assay with SF-295 CNS, with SN12C renal and with SNB-19 CNS was above 100 µM throughout. In addition, the TGI in the assay with SNB-75 CNS and in the assay on TK-10 renal was above 100 µM throughout.
On to `CC(=O)O[C@H]1[C@H](OC(C)=O)[C@@H](CN=[N+]=[N-])OCO[C@@H]1CN=[N+]=[N-]`, for which the TGI in the assay with HT29 colon, in the assay with IGROV1 ovarian, in the assay on M14 melanoma, with NCI-H23 lung, in the assay on NCI-H460 lung and in the assay with OVCAR-4 ovarian was above 100 µM each time. Besides, the TGI in the assay on OVCAR-8 ovarian, in the assay with PC-3 prostate, in the assay on RPMI-8226 leukemia, in the assay with SF-295 CNS, with SN12C renal and in the assay with SNB-19 CNS was above 100 µM throughout. The TGI in the assay on SNB-75 CNS and in the assay on TK-10 renal was above 100 µM each time.
Turning to `Cc1cc(C)nc(NS(=O)(=O)c2ccc(NNC(=O)c3cccc4c(NNc5ccc(S(=O)(=O)Nc6nc(C)cc(C)n6)cc5)c5ccccc5nc34)cc2)n1`, the TGI with HT29 colon came out at 37.8 µM; in the assay with IGROV1 ovarian, 57.1 µM; with M14 melanoma it was 32.6 µM; in the assay with NCI-H23 lung it was 51.6 µM; in the assay with NCI-H460 lung, 51.1 µM; in the assay with OVCAR-4 ovarian it was 68 µM. In addition, the TGI in the assay on OVCAR-8 ovarian is 43.4 µM; in the assay with PC-3 prostate, 51 µM; with RPMI-8226 leukemia it was 64.9 µM; with SF-295 CNS, 88.1 µM; with SN12C renal, above 100 µM; with SNB-19 CNS, 72.7 µM. Moreover, the TGI in the assay with SNB-75 CNS stood at 52.3 µM; in the assay on TK-10 renal it was 67.7 µM.
As to `COc1ccc(N2CCN(Cc3c(C(C)=O)[n+](=O)c4ccccc4n3[O-])CC2)cc1`, the TGI in the assay on HT29 colon, in the assay on IGROV1 ovarian, in the assay with M14 melanoma, in the assay on NCI-H23 lung, with NCI-H460 lung and in the assay on OVCAR-4 ovarian was above 100 µM each time. Further, the TGI in the assay with OVCAR-8 ovarian, in the assay with PC-3 prostate, with RPMI-8226 leukemia, in the assay on SF-295 CNS, in the assay with SN12C renal and in the assay on SNB-19 CNS was above 100 µM each time. Also, the TGI was above 100 µM with SNB-75 CNS and 67.5 µM with TK-10 renal.
As to `CNC(=O)c1n[nH]n(Cc2ccccc2)c1=S`, the TGI in the assay on HT29 colon, in the assay with IGROV1 ovarian, in the assay with M14 melanoma, in the assay on NCI-H23 lung, with NCI-H460 lung and in the assay with OVCAR-4 ovarian was above 100 µM throughout. In addition, the TGI in the assay with OVCAR-8 ovarian, in the assay with PC-3 prostate, in the assay with RPMI-8226 leukemia, in the assay with SF-295 CNS, in the assay with SN12C renal and in the assay on SNB-19 CNS was above 100 µM each time. The TGI with SNB-75 CNS and with TK-10 renal was above 100 µM each time.
In the case of `CCCN1CN(c2ccccc2)C2(CCN(CCCC(=O)c3ccc(F)cc3)CC2)C1=O`, the TGI with HT29 colon was determined as 7.02 µM; in the assay with IGROV1 ovarian it was 14.8 µM; in the assay on M14 melanoma it was 25.1 µM; with NCI-H23 lung, 17.3 µM; in the assay with NCI-H460 lung, 26.9 µM; with OVCAR-4 ovarian it was 20.2 µM. The TGI with OVCAR-8 ovarian came to 32.6 µM; with PC-3 prostate it was 27.6 µM; with RPMI-8226 leukemia, 42.2 µM; with SF-295 CNS it was 24.8 µM; in the assay on SN12C renal, 15.5 µM; in the assay with SNB-19 CNS, 34.7 µM. Besides, the TGI in the assay on SNB-75 CNS came to 47.5 µM; in the assay on TK-10 renal, 22.4 µM.
As to `CC(=O)O[C@H]1CC[C@H]2[C@@H]3CCC4=C(C(=O)C=CC4(C)OC(C)=O)[C@H]3CC[C@]12C` (stereo partly specified), the TGI with HT29 colon, with IGROV1 ovarian, in the assay with M14 melanoma, in the assay with NCI-H23 lung, in the assay with NCI-H460 lung and with OVCAR-4 ovarian was above 100 µM throughout. The TGI in the assay with OVCAR-8 ovarian, with PC-3 prostate, in the assay on RPMI-8226 leukemia, in the assay on SF-295 CNS, in the assay on SN12C renal and in the assay with SNB-19 CNS was above 100 µM in each case. Further, the TGI in the assay with SNB-75 CNS and with TK-10 renal was above 100 µM each time.
On to `CC(=O)N1CC[N+](C)(CCCCN2c3ccccc3Sc3cc(N=[N+]=[N-])ccc32)CC1`, for which the TGI in the assay with HT29 colon, in the assay on IGROV1 ovarian, in the assay on M14 melanoma, in the assay on NCI-H23 lung, in the assay on NCI-H460 lung and with OVCAR-4 ovarian was above 100 µM throughout. Further, the TGI in the assay with OVCAR-8 ovarian, in the assay with PC-3 prostate, in the assay with RPMI-8226 leukemia, in the assay on SF-295 CNS, with SN12C renal and in the assay with SNB-19 CNS was above 100 µM throughout. Also, the TGI in the assay on SNB-75 CNS and with TK-10 renal was above 100 µM in each case.
For `CC(C)c1ccc2c(c1)C=C1OC(=O)[C@]3(C)CCC[C@@]2(C)C13` (stereo partly specified), the TGI in the assay on HT29 colon, with IGROV1 ovarian, in the assay with M14 melanoma, in the assay on NCI-H23 lung, with NCI-H460 lung and in the assay on OVCAR-4 ovarian was above 100 µM in each case. The TGI with OVCAR-8 ovarian, in the assay on PC-3 prostate, in the assay with RPMI-8226 leukemia, with SF-295 CNS, in the assay on SN12C renal and with SNB-19 CNS was above 100 µM in each case. The TGI in the assay with SNB-75 CNS and in the assay with TK-10 renal was above 100 µM throughout.
